According to PubChem BioAssay (NCI):
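Five compound concentrations were applied to cells in 96-well plates for 48 hours; endpoints were derived by simple linear interpolation of the resulting dose-response curve. The concentration for 50% growth inhibition is given as GI50. TGI marks complete inhibition of growth.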

What was measured:
Test in all cases: DTP human tumour cell line panel, 48 h
[1] = system: HL-60(TB) leukemia
[2] = system: MDA-MB-435
[3] = system: PC-3 prostate
[4] = system: RPMI-8226 leukemia
[5] = system: SF-295 CNS
[6] = system: SK-MEL-2 melanoma
[7] = system: SK-MEL-28 melanoma
[8] = system: SK-OV-3 ovarian
[9] = system: SR leukemia
[10] = system: TK-10 renal

| SMILES | GI50 [1] [µM] | TGI [1] [µM] | GI50 [2] [µM] | TGI [2] [µM] | GI50 [3] [µM] | TGI [3] [µM] | GI50 [4] [µM] | TGI [4] [µM] | GI50 [5] [µM] | TGI [5] [µM] | GI50 [6] [µM] | TGI [6] [µM] | GI50 [7] [µM] | TGI [7] [µM] | GI50 [8] [µM] | TGI [8] [µM] | GI50 [9] [µM] | TGI [9] [µM] | GI50 [10] [µM] | TGI [10] [µM] |
| --- | --- | --- | --- | --- | --- | --- | --- | --- | --- | --- | --- | --- | --- | --- | --- | --- | --- | --- | --- | --- |
| Cc1n(Cc2ccc3ccccc3c2)c(Cl)c(Cl)[n+]1Cc1ccc2ccccc2c1 | 1.11 | 3.55 | 1.68 | 3.19 | 1.83 | 4.13 | 1.05 | 3.12 | 2.62 | 8.09 | 2.07 | 4.13 | 1.68 | 3.18 | 2.52 | 9.62 | 1.87 | 4.98 | 1.79 | 3.53 |
| O=c1[nH]c2cc(Cl)c(Cl)cc2n2cc3ccccc3c12 | – | – | 16.9 | 30.5 | 17.3 | 31.1 | 22.3 | 49.2 | 16.2 | 29.9 | 24.9 | 54 | 33 | > 100 | 18 | 33.1 | 17.3 | 39 | 16.8 | 30.4 |
| CN(C)C/C=C/C(=O)Nc1ccc(C(=O)N2CCC[C@@H](Nc3ncc(Cl)c(-c4c[nH]c5ccccc45)n3)C2)cc1 | 0.0353 | 0.173 | 0.0832 | 1.23 | 0.308 | 3.48 | 0.422 | 3.83 | 0.685 | 4.01 | 0.115 | 0.392 | 0.121 | 0.942 | 0.395 | 12.4 | 0.0337 | 1.03 | 2.31 | 12.9 |
| CCC(=O)c1cc([N+](=O)[O-])c(Br)s1 | – | – | 4.77 | 18.7 | 10.3 | 24.4 | 20.2 | 89 | 15.5 | 31.6 | – | – | 4.17 | 15.2 | 19.4 | 33.9 | 1.2 | 3.71 | 13.8 | 28.1 |
| COc1ccc(C(=O)C[C@]2(O)C(=O)Nc3c(Cl)ccc(Cl)c32)cc1 | 0.343 | 3.06 | 0.128 | 0.396 | 1.16 | > 100 | 0.589 | 30 | 0.516 | > 100 | 0.627 | > 100 | 6.54 | > 100 | 1.89 | > 100 | 0.243 | > 100 | > 29.4 | > 100 |
| CN(C)C(=O)SC1=C(c2c(Cl)cccc2Cl)C(=O)c2ccccc21 | 2.84 | 6.53 | 4.54 | 15.9 | 7.95 | 22.8 | 2.2 | 5.84 | 16.6 | 33.7 | 7.12 | 13.7 | 3.16 | 8.89 | 18.6 | 36.5 | 3.56 | 88.9 | 3.5 | 9.64 |
